Experimental data taken from patent publication US20040127547A1, “Prodigiosin composition for the treatment of rheumatic arthritis” (priority 2001, published 2004).

Legend:
[1] = system: DBA/1 mouse with collagen-induced rheumatic arthritis; experiment: Crisis level (clinical index) of collagen-induced rheumatic arthritis; format: in vivo
Experimental: 6 week-old male DBA/1 mouse supplied from Charles River Japan (Japan) was adapted until 8 to 12 week-old and then, used in the experiment. On the first day of the experiment, the mouse was administered subcutaneously with 100 μl of collagen/complete freund's adjuvant at its tail. The collagen/complete freund's adjuvant was prepared by mixing a solution of collagen (bovine type II) dissolved in 0.05 M acetic acid at a concentration of 2 mg/ml with complete freund's adjuvant at the same concentration. At 21st day of the experiment, 100 μg of collagen was intraperitoneally administered and at 28th day of the experiment, 40 μg of lipopolysaccharide was intraperitoneally administered to promote arthritis crisis. The crisis level of rheumatic arthritis was examined with the naked eye and expressed as a clinical index. That is, 0=none, 0.5=flushed and swollen toe, 1=mild crisis, 1.5=moderate crisis, 2 or more=severe crisis and joint stiffness. Four legs of the DBA/1 mouse were examined for their levels of arthritis crisis.
In order to confirm the therapeutic effect of prodigiosin on rheumatic arthritis, three types of experiments were performed according to the following strategies: (1) 10 mg/kg of prodigiosin was intraperitoneally administered every other day from the 29th day of the experiment, when rheumatic arthritis lesion was developed, to 65th day, the last day of the experiment; (2) 10 mg/kg of prodigiosin was intraperitoneally administered every other day from the 29th day of the experiment, when rheumatic arthritis lesion was developed, to 36th day of the experiment; and (3) 10 mg/kg of prodigiosin was intraperitoneally administered every other day from the 36th day of the experiment, when rheumatic arthritis was in progress, to 65th day, the last day of the experiment.
(§1) In this example, the DBA/1 mouse with collagen-induced rheumatic arthritis, prepared in Example 1, were administered intraperitoneally with 10 mg/kg of prodigiosin every other day from the 29th day of the experiment to 65th day of the experiment. The DBA/11 mouse treated with prodigiosin according to the above method and the DBA/1 mouse non-treated with prodigiosin were examined for their crisis level of rheumatic arthritis according to time.
as §1, with “order to investigate the change after suspension of administration of prodigiosin and the influence of prodigiosin on early rheumatic arthritis,” for “this example,”, “36th” for “65th”, “DBA/1” for “DBA/11”, “time. […] Accordingly, it is noted that prodigiosin has effects preventing and treating rheumatic arthritis.” for “time.”
In order to investigate the influence of prodigiosin on rheumatic arthritis which had developed and progressed, the DBA/1 mouse with collagen-induced rheumatic arthritis, prepared in Example 1, were administered intraperitoneally with 10 mg/kg of prodigiosin every other day from the 36th day to 65th day after starting the experiment. The DBA/1 mouse treated with prodigiosin according to the above method and the DBA/1 mouse non-treated with prodigiosin were examined for their crisis level of rheumatic arthritis according to time.

[2] = system: DBA/1 mouse with collagen-induced rheumatic arthritis; experiment: Laboratory test: hematoxylin and eosin staining of interphalangeal and knee joints; format: in vivo; settings: H&E staining
From the text: The ininter phalangeal joints and knee joints from DBA/1 mouse of the prodigiosin-treated group and the control group, not treated with prodigiosin, in Example 3 were subjected to a laboratory test. The ininter phalangeal joints and knee joints were removed on the last day of the administration and stained with hematoxylin and eosin.

[3] = system: cytokines TNF-α, IL-1β, IL-6, IL-12, IL-2, IFN-γ, IL4, IL-10; experiment: Cytokine expression levels in spleen cells by RT-PCR; format: in vivo; settings: spleen cells of treated DBA/1 mouse, 10 mg/kg i.p. every other day
Experimental: The spleen cells were removed from DBA/1 mouse of the prodigiosin-treated group and the control group, not treated with prodigiosin, in Example 3 and subjected to RNA separation. Then, the expression levels of cytokine were measured using RT-PCR (Reverse transcriptase polymerase chain reaction). The expression levels of inflammatory cytokines such as TNF-α, IL-1β, IL-6, IL-12; cytokines derived from Th1 cells such as IL-2, IFN-γ; cytokines derived from Th2 cells such as IL4, IL-10 were measured.

NOD mouse = settings: cited from earlier work
B-cell = settings: cited from earlier work
[4] = system: transplantation rejection; settings: in vivo; cited from earlier work
animal = settings: 10 to 30 mg/kg for 16 weeks; cited from earlier work
T-cell = settings: cited from earlier work

For `CCCCCC1=C/C(=C/c2[nH]c(-c3ccc[nH]3)cc2OC)N=C1C` [prodigiosin], the “crisis level of rheumatic arthritis after suspension of administration” value ([1]; 10 mg/kg i.p. every other day from 29th to 36th day, after suspension of administration) was “about 1”, the “crisis level of rheumatic arthritis by the 38th day” value ([1]; 10 mg/kg i.p. every other day from 29th to 36th day, by the 38th day) was no more than 0.5 and the “crisis level of rheumatic arthritis” value ([1]; 10 mg/kg i.p. every other day from 29th to 65th day, clinical index 0 to 8 (four legs)) was no more than 0.5. For the same molecule, the “crisis level of rheumatic arthritis at 36 day” value ([1]; 10 mg/kg i.p. every other day from 36th to 65th day, at 36 day (start of administration)) was “about 2”, the “change of crisis level after 36 day” value ([1]; 10 mg/kg i.p. every other day from 36th to 65th day, progressive arthritis) was “no more increase” and the “histology of interphalangeal joint and knee joint” value ([2]; groups of Example 3 (10 mg/kg i.p., 29th to 36th day)) was “Normal tissues”. For the same molecule, the “joint destruction in the knee joint” value ([2]; groups of Example 3) was “not observed”, the “lymphocyte infiltration into the interphalangeal joint” value ([2]; groups of Example 3) was “not observed” and the “expression levels of cytokines (TNF-α, IL-1β, IL-6, IL-12, IL-2, IFN-γ, IL4, IL-10)” value [3] was “reduced the expression levels of all kinds of cytokines”. For the same molecule, the “diabetes crisis of the NOD mouse” value (NOD mouse; 10 mg/kg intraperitoneally every other day) was “completely suppressed”, the “insulitis (lymphocyte infiltration into pancreatic islet)” value (NOD mouse; NOD mouse) was “suppressed insulitis” and the “antibody production and proliferation of B-cell” value (B-cell) was “does not inhibit”. For the same molecule, the “effect on transplantation rejection” value [4] was “therapeutic effects”, the toxicity in animal (animal) was “does not show toxicity” and the “proliferation and activity of T-cell” value (T-cell) was “strongly inhibit”. For the same molecule, the “toxicity at a concentration where immunosuppression occurs” value (T-cell; concentration where immunosuppression occurs) was “not showing toxicity”.
